*1 amine or outer side, *2 acyl side, *3 side chain or, on linkers, in order; H or OH if unused. [ ]: non-standard residue; d: D form. The star is where a group is joined. Cys(Acm) = CC(=O)NCSC[C@H](N[*:1])C(=O)[*:2]; Phe(4-F) = N[C@@H](Cc1ccc(F)cc1)C(=O)O; 2Nal = N[C@@H](Cc1ccc2ccccc2c1)C(=O)O; Nle = CCCC[C@H](N)C(=O)O; Orn = NCCC[C@H](N)C(=O)O; Acm = CC(=O)NC*
Columns and labels:
guinea pigs = assay: In vivo bronchodilator activity by tracheal instillation against histamine-induced bronchoconstriction; design: species or system guinea pig; details: 100 μl, anesthetized male Hartley guinea pigs, histamine challenge 50 μg/kg i.v., inhibition of tracheal pressure increase
Procedure: The in vivo bronchodilator activity of VIP analogs in guinea pigs was assessed by the tracheal instillation route of administration. This technique utilized male guinea pigs (Hartley strain, Charles River) weighing 400-600 g. Animals were anesthetized with urethane (2 g/kg) intraperitoneally and a polyethylene cannula was inserted into the jugular vein for intravenous drug administration.
The animals were tracheotomized and dosing solutions of distilled water or test compound dissolved in distilled water were administered into the trachea, approximately three-quarter the distance to the carina with a pipette. The concentration of the dosing solution was adjusted to deliver a constant volume of 100 μl. The animals were placed supine for one minute to aid drug delivery to the lung. One minute later, spontaneous breathing was arrested with succinylcholine chloride (1.2 mg/kg) administered intravenously, and the animals were ventilized with a Harvard Model 680 small animal respirator set at 40 breaths/min and 4.0 cm^3 stoke volume. The animals were challenged with a maximal constrictory dose of histamine (50 μg/kg, i.v.) and tracheal pressure (cm of water) was recorded from a Statham pressure transducer (P 32 AA).
The change in tracheal pressure was averaged for at least 3 control and 3 drug-treated animals and percent inhibition was calculated. The relative potency of compounds administered by the instillation route was determined by administering various doses of test compound and calculating the median inhibitory dose (ID50 value). The ID50 was determined from log dose-reasons curves generated by at least 3 doses that caused inhibitory effects between 10% and 90%. The correlation coefficient for the regression line of each antagonist was always greater than 0.95.
For determination of the time course of inhibition for various compounds, the time between administration of compound and challenge with histamine was varied. The time course of activity was calculated as the time when inhibition decreased to 40%.

[1] = test system: guinea pig tracheal smooth muscle; assay: Tracheal relaxant activity of VIP analogs on isolated guinea pig tracheal rings; format: cell-based; details: cumulative concentration response; responses as % of maximum response to VIP (10^-6 M=100%); at least three tissues pooled; linear regression
Procedure: The relaxant activity of the VIP analogs was studied in a model utilizing guinea pig trachea. [Wasserman, M. A. et al., in Vasoactive Intestinal Peptide, S. I. Said, ed., Raven Press, N.Y. 1982, pp 177-184]; All tissues were taken from male albino guinea pig weighing 400-600 g, anesthesized with urethane (2 g/kg, i.p.). After exanguination, the trachea were removed and divided into four ring segments (3 mm length). Each ring was suspended by 30 gauge stainless steel wires in a 10 mL jacketed tissue bath and attached via 4-0 silk thread to a Grass force displacement transducer (model FT03C, Grass Instruments Co., Quincy, Ma), for isometric recording of tension. The smooth muscle was bathed in modified Krebs solution of the following composition: NaCl, 120 mM; KCl, 4.7 mM; CaCl2, 2.5 mM; MgSO.4 7H2 O, 1.2 mM; NaHCO3, 25 mM; K2 HPO4 monobasic, 1.2 mM; and dextrose, 10 mM. Tissue baths were maintained at 37° C. and constantly bubbled with 95% O2 and 5% CO2. Responses were recorded on an 8 channel and a 4 channel Hewlett-Packard (model 7702B and 7754A, respectively) recorder (Hewlett-Packard, Paramus, N.J.). […] Frequent readjustments of tension were required during the 60 minute stabilization period which followed. Tissues were rinsed at 15 minute intervals.
Cumulative concentration response curves were obtained for each tissue by successive […] increases in the bath concentration of VIP or VIP analogs according to the method of VanRossum [Arch. Int. Pharmacodyn., 143, 299-330 (1963)]. Only one cumulative dose response curve was obtained on a single tissue. To minimize variability between tissues, relaxant responses were expressed as a percentage of the maximum response obtained to VIP (10^-6 M=100%) added at the end of each concentration response experiment. Responses obtained from at least three tissues were pooled and EC50 values were determined by linear regression.

Ac--[2-Nal^10, Lys^12, Nle^17, Ala^19, Val^26, Thr^28, Gly^29,30, Met^31 ]--VIP (Ac-HSDAVFTDN[2Nal]TKLRKQ[Nle]AAKKYLNSVLTGGM-NH2; SMILES CCCC[C@H](NC(=O)[C@H](CCC(N)=O)NC(=O)[C@H](CCCCN)NC(=O)[C@H](CCCNC(=N)N)NC(=O)[C@H](CC(C)C)NC(=O)[C@H](CCCCN)NC(=O)[C@@H](NC(=O)[C@H](Cc1ccc2ccccc2c1)NC(=O)[C@H](CC(N)=O)NC(=O)[C@H](CC(=O)O)NC(=O)[C@@H](NC(=O)[C@H](Cc1ccccc1)NC(=O)[C@@H](NC(=O)[C@H](C)NC(=O)[C@H](CC(=O)O)NC(=O)[C@H](CO)NC(=O)[C@H](Cc1c[nH]cn1)NC(C)=O)C(C)C)[C@@H](C)O)[C@@H](C)O)C(=O)N[C@@H](C)C(=O)N[C@@H](C)C(=O)N[C@@H](CCCCN)C(=O)N[C@@H](CCCCN)C(=O)N[C@@H](Cc1ccc(O)cc1)C(=O)N[C@@H](CC(C)C)C(=O)N[C@@H](CC(N)=O)C(=O)N[C@@H](CO)C(=O)N[C@H](C(=O)N[C@@H](CC(C)C)C(=O)N[C@H](C(=O)NCC(=O)NCC(=O)N[C@@H](CCSC)C(N)=O)[C@@H](C)O)C(C)C) [Ac--(SEQ ID NO: 18)--NH2]
Bronchodilator activity in guinea pigs, ED50 (guinea pigs): 0.35 µg
EC50 [1]: 0.24 nM

Ac--[Ala^2, Glu^8, Lys^12, Nle^17, Ala^19, Val^26, Thr^28, Ala^29-31 ]--VIP (Ac-HADAVFTENYTKLRKQ[Nle]AAKKYLNSVLTAAA-NH2; SMILES CCCC[C@H](NC(=O)[C@H](CCC(N)=O)NC(=O)[C@H](CCCCN)NC(=O)[C@H](CCCNC(=N)N)NC(=O)[C@H](CC(C)C)NC(=O)[C@H](CCCCN)NC(=O)[C@@H](NC(=O)[C@H](Cc1ccc(O)cc1)NC(=O)[C@H](CC(N)=O)NC(=O)[C@H](CCC(=O)O)NC(=O)[C@@H](NC(=O)[C@H](Cc1ccccc1)NC(=O)[C@@H](NC(=O)[C@H](C)NC(=O)[C@H](CC(=O)O)NC(=O)[C@H](C)NC(=O)[C@H](Cc1c[nH]cn1)NC(C)=O)C(C)C)[C@@H](C)O)[C@@H](C)O)C(=O)N[C@@H](C)C(=O)N[C@@H](C)C(=O)N[C@@H](CCCCN)C(=O)N[C@@H](CCCCN)C(=O)N[C@@H](Cc1ccc(O)cc1)C(=O)N[C@@H](CC(C)C)C(=O)N[C@@H](CC(N)=O)C(=O)N[C@@H](CO)C(=O)N[C@H](C(=O)N[C@@H](CC(C)C)C(=O)N[C@H](C(=O)N[C@@H](C)C(=O)N[C@@H](C)C(=O)N[C@@H](C)C(N)=O)[C@@H](C)O)C(C)C) [Ac--(SEQ ID NO: 19)--NH2]
Bronchodilator activity in guinea pigs, ED50 (guinea pigs): 0.47 µg
EC50 [1]: 0.23 nM

Ac--[Ala^2, Lys^12, Nle^17, Ala^25, Leu^26, Lys^27,28, Gly^29,30, Thr^31 ]--VIP (Ac-HADAVFTDNYTKLRKQ[Nle]AVKKYLNALKKGGT-NH2; SMILES CCCC[C@H](NC(=O)[C@H](CCC(N)=O)NC(=O)[C@H](CCCCN)NC(=O)[C@H](CCCNC(=N)N)NC(=O)[C@H](CC(C)C)NC(=O)[C@H](CCCCN)NC(=O)[C@@H](NC(=O)[C@H](Cc1ccc(O)cc1)NC(=O)[C@H](CC(N)=O)NC(=O)[C@H](CC(=O)O)NC(=O)[C@@H](NC(=O)[C@H](Cc1ccccc1)NC(=O)[C@@H](NC(=O)[C@H](C)NC(=O)[C@H](CC(=O)O)NC(=O)[C@H](C)NC(=O)[C@H](Cc1c[nH]cn1)NC(C)=O)C(C)C)[C@@H](C)O)[C@@H](C)O)C(=O)N[C@@H](C)C(=O)N[C@H](C(=O)N[C@@H](CCCCN)C(=O)N[C@@H](CCCCN)C(=O)N[C@@H](Cc1ccc(O)cc1)C(=O)N[C@@H](CC(C)C)C(=O)N[C@@H](CC(N)=O)C(=O)N[C@@H](C)C(=O)N[C@@H](CC(C)C)C(=O)N[C@@H](CCCCN)C(=O)N[C@@H](CCCCN)C(=O)NCC(=O)NCC(=O)N[C@H](C(N)=O)[C@@H](C)O)C(C)C) [Ac--(SEQ ID NO: 20)--NH2]
Bronchodilator activity in guinea pigs, ED50 (guinea pigs): 0.05 µg
EC50 [1]: 0.44 nM

Ac--[Glu^8, Lys^12, Nle^17, Val^26, Thr^28, Gly^29,30, Met^31 ]--VIP (Ac-HSDAVFTENYTKLRKQ[Nle]AVKKYLNSVLTGGM-NH2; SMILES CCCC[C@H](NC(=O)[C@H](CCC(N)=O)NC(=O)[C@H](CCCCN)NC(=O)[C@H](CCCNC(=N)N)NC(=O)[C@H](CC(C)C)NC(=O)[C@H](CCCCN)NC(=O)[C@@H](NC(=O)[C@H](Cc1ccc(O)cc1)NC(=O)[C@H](CC(N)=O)NC(=O)[C@H](CCC(=O)O)NC(=O)[C@@H](NC(=O)[C@H](Cc1ccccc1)NC(=O)[C@@H](NC(=O)[C@H](C)NC(=O)[C@H](CC(=O)O)NC(=O)[C@H](CO)NC(=O)[C@H](Cc1c[nH]cn1)NC(C)=O)C(C)C)[C@@H](C)O)[C@@H](C)O)C(=O)N[C@@H](C)C(=O)N[C@H](C(=O)N[C@@H](CCCCN)C(=O)N[C@@H](CCCCN)C(=O)N[C@@H](Cc1ccc(O)cc1)C(=O)N[C@@H](CC(C)C)C(=O)N[C@@H](CC(N)=O)C(=O)N[C@@H](CO)C(=O)N[C@H](C(=O)N[C@@H](CC(C)C)C(=O)N[C@H](C(=O)NCC(=O)NCC(=O)N[C@@H](CCSC)C(N)=O)[C@@H](C)O)C(C)C)C(C)C) [Ac--(SEQ ID NO: 9)--NH2]
Bronchodilator activity in guinea pigs, ED50 (guinea pigs): 1.7 µg

Ac--[Leu^5, Orn^12, Ala^17,19, Thr^25, Val^26, Thr^28, Gly^29,30, Cys(Acm)^31 ]--VIP (Ac-HSDALFTDNYT[Orn]LRKQAAAKYLNSTVNTGGC(Acm)-NH2; SMILES CC(=O)NCSC[C@H](NC(=O)CNC(=O)CNC(=O)[C@@H](NC(=O)[C@H](CC(N)=O)NC(=O)[C@@H](NC(=O)[C@@H](NC(=O)[C@H](CO)NC(=O)[C@H](CC(N)=O)NC(=O)[C@H](CC(C)C)NC(=O)[C@H](Cc1ccc(O)cc1)NC(=O)[C@H](CCCCN)NC(=O)[C@H](C)NC(=O)[C@H](C)NC(=O)[C@H](C)NC(=O)[C@H](CCC(N)=O)NC(=O)[C@H](CCCCN)NC(=O)[C@H](CCCNC(=N)N)NC(=O)[C@H](CC(C)C)NC(=O)[C@H](CCCN)NC(=O)[C@@H](NC(=O)[C@H](Cc1ccc(O)cc1)NC(=O)[C@H](CC(N)=O)NC(=O)[C@H](CC(=O)O)NC(=O)[C@@H](NC(=O)[C@H](Cc1ccccc1)NC(=O)[C@H](CC(C)C)NC(=O)[C@H](C)NC(=O)[C@H](CC(=O)O)NC(=O)[C@H](CO)NC(=O)[C@H](Cc1c[nH]cn1)NC(C)=O)[C@@H](C)O)[C@@H](C)O)[C@@H](C)O)C(C)C)[C@@H](C)O)C(N)=O) [Ac--(SEQ ID NO: 8)--NH2]
Bronchodilator activity in guinea pigs, ED50 (guinea pigs): 0.28 µg

Ac--[p-F--Phe^6, Lys^12, Nle^17, Ala^19, Val^26, Thr^28, Gly^29,30, Cys(Acm)^31 ]--VIP (Ac-HSDAV[Phe(4-F)]TDNYTKLRKQ[Nle]AAKKYLNSVLTGG[Cys(Acm)]-NH2; SMILES CCCC[C@H](NC(=O)[C@H](CCC(N)=O)NC(=O)[C@H](CCCCN)NC(=O)[C@H](CCCNC(=N)N)NC(=O)[C@H](CC(C)C)NC(=O)[C@H](CCCCN)NC(=O)[C@@H](NC(=O)[C@H](Cc1ccc(O)cc1)NC(=O)[C@H](CC(N)=O)NC(=O)[C@H](CC(=O)O)NC(=O)[C@@H](NC(=O)[C@H](Cc1ccc(F)cc1)NC(=O)[C@@H](NC(=O)[C@H](C)NC(=O)[C@H](CC(=O)O)NC(=O)[C@H](CO)NC(=O)[C@H](Cc1c[nH]cn1)NC(C)=O)C(C)C)[C@@H](C)O)[C@@H](C)O)C(=O)N[C@@H](C)C(=O)N[C@@H](C)C(=O)N[C@@H](CCCCN)C(=O)N[C@@H](CCCCN)C(=O)N[C@@H](Cc1ccc(O)cc1)C(=O)N[C@@H](CC(C)C)C(=O)N[C@@H](CC(N)=O)C(=O)N[C@@H](CO)C(=O)N[C@H](C(=O)N[C@@H](CC(C)C)C(=O)N[C@H](C(=O)NCC(=O)NCC(=O)N[C@@H](CSCNC(C)=O)C(N)=O)[C@@H](C)O)C(C)C) [Ac--(SEQ ID NO: 76)--NH2]
Bronchodilator activity in guinea pigs, ED50 (guinea pigs): 017 µg
